{"source": "patent US20130014428A1", "about": "“METHODS OF MONITORING AND CONTROLLING THE WALNUT TWIG BEETLE, PITYOPHTHORUS JUGLANDIS” (The United States of America as Represented by the …, priority 2011, published 2013)", "assay_type_in_all_cases": "in vivo, Pityophthorus juglandis", "key": {"WTB [1]": {"tested_on": "WTB", "assay": "Six release rate experiment, 4-unit Lindgren funnel traps", "conditions": "for trap catches, female WTB / trap catches, male WTB: N=99", "procedure": "In a separate experiment, the flight response of WTB to six release rates of 3-methyl-2-buten-1-ol was tested at the same location in early summer. The six release rates were: 1) 165 mg/d, from a capped 15 ml polyethylene bottle with a 0.48 cm hole drilled in the side of the cap, charged with 15 ml 3-methyl-2-buten-1-ol (Sigma-Aldrich); 2) 15-80 mg/d from the commercial LDPE plastic pouch (Contech); 3) 5 mg/d from a capped 15 ml polyethylene bottle charged with 15 ml 3-methyl-2-buten-1-ol (Sigma-Aldrich); 4) 5 mg/d from a capped 15 ml polyethylene bottle charged with 1 ml 3-methyl-2-buten-1-ol (Sigma-Aldrich); 5) 0.2 mg/d from a 400 μl closed Eppendorf polyethylene microcentrifuge tube charged with 300 μl 3-methyl-2-buten-1-ol (Sigma-Aldrich); and 6) an unbaited control. The 15 ml polyethylene bottles were purchased from Contech Enterprises (product #100000582/583); the 400 μl polyethylene Eppendorf microcentrifuge tubes were purchased from Evergreen Scientific (product #214-3417-020, Los Angeles, Calif.). These release devices were attached to 4-unit Lindgren funnel traps as described above. The six treatments were replicated in three spatial blocks and the treatments were re-randomized among the six trap stations in a block each time the traps were emptied (nearly every day). Statistical Analyses. Analysis of treatment effects for the pouch vs. bottle experiment was done by using a sign test. (See Zar, J. H. 2010. Biostatistical Analysis. 5th ed. Pearson Prentice Hall, Englewood Cliffs, N.J.) The other four experiments were analyzed for treatment effect by using Friedman's non-parametric analysis of variance. Id. In all experiments, males and females were analyzed separately. All treatments within experiments yielding a significant treatment effect were compared by using an a posteriori Nemenyi test with experimentwise α=0.05. Id. For all experiments, differences among proportions of female WTB responding to treatments were analyzed by comparing 95% confidence intervals determined with the Clopper-Pearson method. Id."}, "WTB [2]": {"tested_on": "WTB", "assay": "Example 2 Field Test 1: X in combination with X-3 and X-2", "conditions": "4-unit Lindgren funnel traps", "procedure": "Field Bioassays of 3-methyl-2-buten-1-ol in combination with other compounds. The flight response of WTB to 3-methyl-2-buten-1-ol in combination with other compounds was also tested. […] Louis, Mo. […] The five treatments were replicated in three spatial blocks and the treatments were re-randomized among the five trap stations in a block each time the traps were emptied (nearly every day). [table] Statistical Analyses. Analysis of treatment effects for the pouch vs. bottle experiment was done by using a sign test. (See Zar, J. H. 2010. Biostatistical Analysis. 5th ed. Pearson Prentice Hall, Englewood Cliffs, N.J.) The other four experiments were analyzed for treatment effect by using Friedman's non-parametric analysis of variance. Id. In all experiments, males and females were analyzed separately. All treatments within experiments yielding a significant treatment effect were compared by using an a posteriori Nemenyi test with experimentwise α=0.05. Id. For all experiments, differences among proportions of female WTB responding to treatments were analyzed by comparing 95% confidence intervals determined with the Clopper-Pearson method. Id."}, "WTB [3]": {"tested_on": "WTB", "assay": "Two release rate (pouch vs. bottle) experiment, 4-unit Lindgren funnel traps", "conditions": "for trap catches, female WTB / trap catches, male WTB: N=40", "procedure": "Field Testing of Various Release Rates of 3-methyl-2-buten-1-ol. The flight response of WTB to two release rates of 3-methyl-2-buten-1-ol was tested at the Wolfskill Experimental Orchards (the Juglans collection of the USDA ARS National Clonal Germplasm Repository in Winters, Solano Co., Calif.) in late spring. The two release rates were: 1) 15-80 mg/d (depending on temperature, as per manufacturer's data), delivered from a commercially available LDPE plastic pouch (Product #300000736, RD-1039, Contech Enterprises Inc., Delta, BC, Canada); and 2) 5 mg/d (based on laboratory assessments at 25° C. and 30° C.), delivered from a 15 ml polyethylene bottle charged with 15 ml of 3-methyl-2-buten-1-ol [≧98% chemical purity, product #W364703, SAFC (=Sigma-Aldrich), St. Louis Mo.]. The pouch or bottle was suspended in the middle of a 4-unit Lindgren funnel trap (Contech), attached to the funnel strut so it rested on the inside surface of the third funnel (counted from the trap top), without blocking the central axis/interior hole of the trap. The trap cup was filled with propylene glycol-based recreational vehicle/marine antifreeze to a depth of about 2.5 to 5 cm, and the traps were hung from poles at a height of approximately 3 m. (See Seybold, S. J., Dallara, P. L., Hishinuma, S. M., and Flint, M. L. Detecting and Identifying the Walnut Twig Beetle: Monitoring Guidelines for the Invasive Vector of Thousand Cankers Disease of Walnut, University of California Agriculture and Natural Resources, Statewide Integrated Pest Management Program, 11 pp., Apr. 30, 2012). The two treatments were replicated in four spatial blocks and the treatments were re-randomized between the two trap stations in a block each time the traps were emptied (nearly every day).\nStatistical Analyses. Analysis of treatment effects for the pouch vs. bottle experiment was done by using a sign test. (See Zar, J. H. 2010. Biostatistical Analysis. 5th ed. Pearson Prentice Hall, Englewood Cliffs, N.J.) The other four experiments were analyzed for treatment effect by using Friedman's non-parametric analysis of variance. Id. In all experiments, males and females were analyzed separately. All treatments within experiments yielding a significant treatment effect were compared by using an a posteriori Nemenyi test with experimentwise α=0.05. Id. For all experiments, differences among proportions of female WTB responding to treatments were analyzed by comparing 95% confidence intervals determined with the Clopper-Pearson method. Id."}, "[4]": {"conditions": "X 15-60 mg/d, X-3 and X-2 1.76 mg/d, N=42"}, "[5]": {"conditions": "release rate 5 mg/d (bottle with 15 ml load)"}, "[6]": {"conditions": "release rate 15-80 mg/d (pouch)"}}, "data": [{"smiles": "CC(C)=CCO", "note": "[X, 3-methyl-2-buten-1-ol]", "values": [{"measurement": "proportion of females responding", "setting": "WTB [1]; 0.2 mg/d", "value": 0.66}, {"measurement": "trap catches, female WTB", "setting": "WTB [1]; 0.2 mg/d", "value": 623}, {"measurement": "trap catches, male WTB", "setting": "WTB [1]; 0.2 mg/d", "value": 323}, {"measurement": "proportion of females responding", "setting": "WTB [1]; 5 mg/d (1 ml load)", "value": 0.71}, {"measurement": "trap catches, female WTB", "setting": "WTB [1]; 5 mg/d (1 ml load)", "value": 1084}, {"measurement": "trap catches, male WTB", "setting": "WTB [1]; 5 mg/d (1 ml load)", "value": 453}, {"measurement": "proportion of females responding", "setting": "WTB [1]; 5 mg/d (15 ml load)", "value": 0.72}, {"measurement": "trap catches, female WTB", "setting": "WTB [1]; 5 mg/d (15 ml load)", "value": 1534}, {"measurement": "trap catches, male WTB", "setting": "WTB [1]; 5 mg/d (15 ml load)", "value": 608}, {"measurement": "proportion of females responding", "setting": "WTB [1]; 165 mg/d", "value": 0.75}, {"measurement": "trap catches, female WTB", "setting": "WTB [1]; 165 mg/d (15 ml load)", "value": 612}, {"measurement": "trap catches, male WTB", "setting": "WTB [1]; 165 mg/d (15 ml load)", "value": 205}, {"measurement": "proportion of females responding", "setting": "WTB [1]; 15-80 mg/d", "value": 0.77}, {"measurement": "trap catches, female WTB", "setting": "WTB [1]; 15-80 mg/d", "value": 934}, {"measurement": "trap catches, male WTB", "setting": "WTB [1]; 15-80 mg/d", "value": 285}, {"measurement": "release rate giving highest flight response", "setting": "WTB [1]; six release rates compared", "value": "highest response for both sexes was to the 5 mg/d release loaded with 15 ml of pheromone"}, {"measurement": "proportion of females responding", "setting": "WTB [2]", "value": 0.77}, {"measurement": "trap catches, female WTB", "setting": "WTB [2]; [4]", "value": 636}, {"measurement": "trap catches, male WTB", "setting": "WTB [2]; [4]", "value": 193}, {"measurement": "proportion of females responding", "setting": "WTB [3]; higher release rate (15-80 mg/d)", "value": 0.71}, {"measurement": "proportion of females responding", "setting": "WTB [3]; lower release rate (5 mg/d)", "value": 0.63}, {"measurement": "trap catches, female WTB", "setting": "WTB [3]; [5]", "value": 3072}, {"measurement": "trap catches, male WTB", "setting": "WTB [3]; [5]", "value": 1828}, {"measurement": "trap catches, female WTB", "setting": "WTB [3]; [6]", "value": 3085}, {"measurement": "trap catches, male WTB", "setting": "WTB [3]; [6]", "value": 1284}, {"measurement": "difference between release rate treatments", "setting": "WTB [3]; two-sided sign test, pouch vs bottle", "value": "male response was greater for the lower release rate plastic bottle treatment"}]}]}
